US20240417408A1, “SMALL MOLECULE INHIBITORS OF KRAS G12C MUTANT” (MERCK SHARP & DOHME CORP., priority 2021, published 2024)

How the values were obtained:
[1] = biological target: T1, biotinylated KRAS protein containing G12C/C51S/C80L/C118S mutations (SEQ ID NO: 3) (Homo sapiens, UniProt P01116, C118S/C51S/C80L/G12C); experiment: Test Example 4: SOS-catalyzed nucleotide exchange assay (TR-FRET); assay type: biochemical; conditions: 60-minute incubation with compound, then SOS and GTP, read-out: GNE IC50
T1 construct: biotin acceptor peptide (Avi-type, […]
T1 sequence (P01116 with tags, fused parts or gaps isoform P01116-2 G12C/C51S/C80L/C118S): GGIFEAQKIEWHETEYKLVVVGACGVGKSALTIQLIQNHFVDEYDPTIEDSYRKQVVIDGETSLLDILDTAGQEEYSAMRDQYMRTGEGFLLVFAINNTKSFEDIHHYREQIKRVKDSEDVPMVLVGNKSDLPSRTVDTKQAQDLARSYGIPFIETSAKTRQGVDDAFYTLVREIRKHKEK
Method: Test Example 4: Procedure for SOS-Catalyzed Nucleotide Exchange Assay
The SOS-catalyzed nucleotide exchange assay utilizes a preformed complex of recombinant biotinylated KRAS protein containing G12C/C51S/C80L/C118S mutations (SEQ ID NO: 3) (referred to as Biotinylated KRAS G12C protein hereafter), Bodipy-GDP, and Terbium-streptavidin. Compounds are added to this complex and then after a 60-minute incubation time the mixture is treated with SOS and unlabeled GTP. Small molecule inhibitors stabilize the Bodipy-GDP complex whereas the untreated protein rapidly exchanges Bodipy-GDP for unlabeled GTP resulting in reduced TR-FRET signal.
Biotinylated KRAS G12C protein is diluted to 2 μM in an EDTA buffer (20 mM HEPES, 50 mM sodium chloride, 10 mM EDTA, and 0.01% Tween) and incubated at room temperature for one hour. This mixture is then further diluted to 90 nM in an assay buffer (20 mM HEPES, 150 mM sodium chloride, 10 mM magnesium chloride, and 0.005% Tween) containing 15 nM of Terbium-Streptavidin (Invitrogen, catalog #PV3577) and 900 nM of Bodipy-GDP (Invitrogen, G22360) and incubated at room temperature for six hours. This solution is referred to as Biotinylated KRAS G12C stock solution and is then diluted to 9 nM in assay buffer to give the KRAS G12C assay solution.
(§1) Each test compound (10 mM stock in DMSO) is diluted in DMSO to make a 10-point, 3-fold dilution series in a 384-well low dead volume microplate (Labcyte, catalog #LP-0200). Once titrations are made, 10 nL of the diluted compounds is acoustically dispensed into a 384-well plate (Corning, catalog #3820) using an Echo 550 (Labcyte).
Each well receives 6 μL of Biotinylated KRAS G12C assay solution using a BioRAPTR (Beckman Coulter) and is incubated at room temperature for 60 minutes in a humidified chamber. Each well then receives 3 μL of 120 nM recombinant human SOS protein and 9 mM GTP (Sigma, G8877) in assay buffer and is incubated at room temperature for 60 minutes in a humidified chamber.
(§2) The time-resolved fluorescence resonance energy transfer signal of both plates is measured on an Envision (PerkinElmer) plate reader: Excitation filter=340 nm; emission 1=495 nm; emission 2=520 nm; dichroic mirror=D400/D505; delay time=100 μs. The signal of each well is determined as the ratio of the emission at 520 nm to that at 495 nm. Percent effect of each well is determined after normalization to control wells containing DMSO (no effect) or a saturating concentration of inhibitor (max effect). The apparent effect as a function of compound concentration is fit to a four-parameter logistic equation.

[2] = biological target: T2, Biotinylated KRAS G12C protein and GST-tagged Ras binding domain of c-RAF (Homo sapiens, UniProt P01116, C118S/C51S/C80L/G12C); experiment: Test Example 5: RAS:RAF-RBD binding assay (TR-FRET); conditions: 30-minute incubation with compound, then GST-c-RAF RBD, read-out: cRaf IC50
T2 construct: biotin acceptor peptide (Avi-type, […]
T2 sequence (P01116 with tags, fused parts or gaps isoform P01116-2 G12C/C51S/C80L/C118S): as above
Method: Test Example 5: Procedure for RAS:RAF-RBD Binding Assay
The RAF-Ras binding domain (RBD) protein interaction assay utilizes Biotinylated KRAS G12C protein (SEQ ID NO: 3) and the GST-tagged Ras binding domain of c-RAF (residues 50-132) from Jena Biosciences). Compounds are added to KRAS and then after a 30-minute incubation time the RAF-RBD and detection antibodies are added. Small molecule inhibitors that block the interaction of c-RAF-RBD prevent generation of a TR-FRET signal.
Biotinylated KRAS G12C protein is diluted to 20 nM in assay buffer (20 mM HEPES pH 7.5, 150 mM sodium chloride, 10 mM magnesium chloride, and 0.01% Tween20).
as §1, with “made, 50” for “made, 10”, “into” for “into a”, “384-well plates” for “384-well plate”, “Echo 655” for “Echo 550”
Each well of the assay plate receives 5 μL of Biotinylated KRAS G12C assay solution and is incubated at room temperature for 30 minutes. Each well then receives 5 μL of 100 nM GST-c-RAF RBD protein and a 1:100 dilution of both anti-GST-d2 (Cisbio catalog #61GSTDLA) and Strepavidin-Tb cryptate (Cisbio catalog #610SATLA) in assay buffer and the plate is mixed and briefly centrifuged followed by a 60 minute incubation at room temperature.
as §2, with “dichroic mirror=LANCE/DELFIA DUAL/Bias; Emission1=615” for “Excitation filter=340”, “Emission2=665” for “emission 1=495”, “nm;” for “nm; emission 2=520 nm; dichroic mirror=D400/D505;”, “time=[…].” for “time=100 μs.”, “665” for “520”, “615” for “495”

Row | Compound | IC50 [1] | IC50 [2]
1 | COC1CCN(C/C=C/C(=O)N2CCN(c3nc(OC[C@@]45CCCN4C[C@H](F)C5)nc4c3COC(c3nc(N)cc(C)c3C(F)(F)F)C4)C[C@@H]2CC#N)CC1 (stereo partly drawn) [Example 22, 2-((2S)-4-(7-(6-amino-4-methyl-3-(trifluoromethyl)-pyridin-2-yl)-2-(((2R,7aS)-2-fluorotetrahydro-1H-pyr-rolizin-7a(5H)-yl)methoxy)-7,8-dihydro-5H-pyrano[4,3-d]pyrimidin-4-yl)-1-((E)-4-(4-methoxypiperidin-1-yl)-but-2-enoyl)piperazin-2-yl)-acetonitrile] | 5.6 nM | 122 nM
2 | COC1CCN(C/C=C/C(=O)N2CCN(c3nc(OC[C@@]45CCCN4C[C@H](F)C5)nc4c3CCC3(CCCc5ccccc53)O4)C[C@@H]2CC#N)CC1 (stereo partly drawn) [Example 26, 2-((2S)-4-(2′-(((2R,7aS)-2-fluorotetrahydro-1H-pyrrolizin-7a(5H)-yl)methoxy)-3,4,5′,6′-tetrahydro-2H-spiro[naphthalene-1,7′-pyrano[2,3-d]pyrimidin]-4′-yl)-1-((E)-4-(4-methoxypiperidin-1-yl)but-2-enoyl)piperazin-2-yl)acetonitrile] | 80.8 nM | 48800 nM
3 | COC1CCN(C/C=C/C(=O)N2CCN(c3nc(OC[C@@]45CCCN4C[C@H](F)C5)nc4c3COC(c3c(F)cc(F)c5ccc(N)nc35)C4)C[C@@H]2CC#N)CC1 (single isomer, unassigned) [Example 23a] | 131 nM | > 50000 nM
4 | C#Cc1cccc2cccc([C@@H]3Cc4nc(OC[C@@]56CCCN5C[C@H](F)C6)nc(N5CCN(C(=O)/C=C/CN6CCC(OC)CC6)[C@@H](CC#N)C5)c4CO3)c12 (single isomer, unassigned) [Example 25b] | 1.6 nM | 74 nM
5 | COC1CCN(C/C=C/C(=O)N2CCN(c3nc(OC[C@@]45CCCN4C[C@H](F)C5)nc4c3COC(c3c(F)cc(F)c5ccc(N)nc35)C4)C[C@@H]2CC#N)CC1 (single isomer, unassigned) [Example 23b] | 16 nM | 12700 nM
